Measured values: paper PMC4754833, “Rilpivirine analogs potently inhibit drug-resistant HIV-1 mutants” (Retrovirology, 2016)

Experiments:
Type in all cases: cell-based
[1] = test system: HIV-1 RT mutant G190A; test: single round infection assay, G190A; settings: for IC50: Human immunodeficiency virus 1
Protocol: (§1) The human osteosarcoma cell line, HOS, was obtained from Dr. Richard Schwartz (Michigan State University, East Lansing, MI) and grown in Dulbecco’s modified Eagle’s medium (Invitrogen, Carlsbad, CA) supplemented with 5 % (v/v) fetal bovine serum, 5 % newborn calf serum, and penicillin (50 units/ml) plus streptomycin (50 µg/ml; Quality Biological, Gaithersburg, MD). Virion production and single-round infectivity assays were used to determine antiviral activity (IC50 values) of the compounds as previously described.
(§2) pNLNgoMIVR-ΔEnv.LUC has been described previously. The RT open reading frame was removed from pNLNgoMIVR-ΔEnv.LUC (digestion with SpeI and SalI) and inserted between the SpeI and SalI sites of pBluescript II KS+. Using that construct as the wild-type template, we prepared the following HIV-1 RT mutants using the QuikChange II XL (Stratagene, La Jolla, CA) site-directed mutagenesis protocol kit: L100I, K103N, Y181C, Y188L, H221Y, K103N/Y181C, G190A, G190S, M230L, P236L, L100I/K103N, K103N/P225H, V106A/G190A/F227L, V106A, L234I, V106A/F227L, V106A/L234I, V106A/F227L/L234I, E40K, D67E, K101E, V111A, E138K, M184I, M184V, K101E/M184I, K101E/M184V, E138K/M184I, E138K/M184V, K101P, Y181I, and K101P/V179I. The following sense oligonucleotides were used with matching cognate antisense oligonucleotides (not shown) (Integrated DNA Technologies, Coralville, IA) in the mutagenesis: L100I, 5′-[…]-3′; L100I 2-103, 5′-[…]-3′; K103N, 5′-[…]-3′; Y181C, 5′-[…]-3′; Y188L, 5′-[…]-3′; H221Y, 5′-[…]-3′; G190A, 5′-[…]-3′; G190S, 5′-[…]-3′; P225H, 5′-[…]-3′; F227, 5′-[…]-3′; M230L, 5′-[…]-3′; P236L, 5′-[…]-3′; V106A, 5′-[…]-3′; L234I, 5′-[…]-3′; E40K, 5′-[…]-3′; D67E, 5′-[…]-3′; K101E, 5′-[…]-3′; V111A, 5′-[…]-3′; E138K, 5′-[…]-3′; M184I, 5′-[…]-3′; M184V, 5′-[…]-3′; K101P, 5′-[…]-3′; Y181I, 5′-[…]-3′; K101P/V179I, 5′-[…]-3′. The double mutants K103N/Y181C, K103N/P225H, and L100I/K103N were made using the previously generated K103N mutant and the appropriate oligonucleotides to add the second mutation, Y181C, P225, and L100I respectively. The double mutants V106A/F227L and V106A/L234I were prepared using the previously generated V106A mutant and the appropriate oligonucleotides to add the second mutation, F227L and L234I, respectively. The double mutants K101E/M184I and K101E/M184V were constructed using the previously generated K101E mutant and the appropriate oligonucleotides to add the second mutation, M184I and M184V, respectively. The double mutants E138K/M184I and E138K/M184V were constructed using the previously generated E138K mutant and the appropriate oligonucleotides for the second mutation, M184I and M184V, respectively. The triple mutant V106A/F227L/L234I was made using the previously generated V106A/F227L double mutant and the appropriate oligonucleotides for the third mutation, L234I. The triple mutant V106A/G190A/F227L was constructed in a series of steps using the previously generated V106A mutant and the appropriate oligonucleotides for the second mutation, G190A, to generate the double mutant V106A/G190A, and then the triple mutant was made using double mutant V106A/G190A and oligonucleotides for the third mutation, F227L. The DNA sequence of each construct was verified by DNA sequence determination. The sequences encoding the mutant RTs were then subcloned into pNLNgoMIVR-ΔEnv.LUC (between the KpnI and SalI sites) to produce the mutant HIV-1 constructs. These DNA sequences were also checked independently by DNA sequence determination.
(§3) 10.1186/s12977-016-0244-2 The IC50 values (nM) of RPV and the RPV analogs were determined against the NNRTI resistant mutants were measured by using a single round infection assay, n = 4. The concentrations (nM) are measured by reductions in luciferase reporter activity followed by the standard deviations. […]

[2] = test system: HIV-1 RT mutant M230L; test: single round infection assay, M230L; settings: for fold-change of IC50 of the mutant relative to WT: M230L vs WT
Protocol: as §1, §2, §3

[3] = test system: HIV-1 RT mutant P236L; test: single round infection assay, P236L; settings: Human immunodeficiency virus 1
Protocol: as §1, §2, §3

[4] = test system: HIV-1 RT mutant K103N/P225H; test: single round infection assay, K103N/P225H; settings: for IC50: Human immunodeficiency virus 1; for fold-change of IC50 of the mutant relative to WT: K103N/P225H vs WT
Protocol: as §1, §2, §3

[5] = test system: HIV-1 RT mutant V106A/G190A/F227L; test: single round infection assay, V106A/G190A/F227L; settings: for IC50: Human immunodeficiency virus 1; for fold-change of IC50 of the mutant relative to WT: V106A/G190A/F227L vs WT
Protocol: as §1, §2, §3

[6] = test system: HIV-1 RT mutant V106A/F227L/L234I; test: single round infection assay, V106A/F227L/L234I; settings: V106A/F227L/L234I vs WT
Protocol: as §1, §2, §3

[7] = test system: HIV-1 RT mutant K101E; test: single round infection assay, K101E; settings: for IC50: ± SD, n=4; for fold-change of IC50 of the mutant relative to WT: K101E vs WT
Protocol: as §1, §2, §3

[8] = test system: HIV-1 RT mutant E138K; test: single round infection assay, E138K; settings: for fold-change of IC50 of the mutant relative to WT: E138K vs WT; for IC50: ± SD, n=4
Protocol: as §1, §2, §3

[9] = test system: HIV-1 RT mutant K101P; test: single round infection assay, K101P; settings: for IC50: Human immunodeficiency virus 1; for fold-change of IC50 of the mutant relative to WT: K101P vs WT
Protocol: as §1, §2, §3

[10] = test system: HIV-1 RT mutant K101P/V179I; test: single round infection assay, K101P/V179I; settings: for IC50: Human immunodeficiency virus 1; for fold-change of IC50 of the mutant relative to WT: K101P/V179I vs WT
Protocol: as §1, §2, §3

[11] = test system: HIV-1 RT mutant E40K; test: single round infection assay, E40K; settings: E40K vs WT
Protocol: as §1, §2, §3

[12] = test system: HIV-1 RT mutant K101E/M184V; test: single round infection assay, K101E/M184V; settings: K101E/M184V vs WT
Protocol: as §1, §2, §3

[13] = test system: HIV-1 RT mutant V106A; test: single round infection assay, V106A; settings: V106A vs WT
Protocol: as §1, §2, §3

[14] = Human immunodeficiency virus 1, K101E
[15] = Human immunodeficiency virus 1, E138K

Cc1cc(/C=C/C#N)cc(C)c1Nc1ncc([N+](=O)[O-])c(Nc2ccc(C#N)cc2)n1 [compound 8]
IC50 [1]: 0.24 ± 0.04 nM | IC50 ([2]; Human immunodeficiency virus 1, M230L, ± SD, n=4, limit of detection 100 nM): 11.9 nM | fold-change of IC50 of the mutant relative to WT [2]: 7 | IC50 [3]: 0.61 ± 0.07 nM | IC50 [4]: 1.2 ± 0.33 nM | IC50 [5]: 2.8 ± 0.42 nM | fold-change of IC50 of the mutant relative to WT [5]: < 2 | fold-change of IC50 of the mutant relative to WT [6]: < 2 | IC50 [7, 14]: 10.1 nM | fold-change of IC50 of the mutant relative to WT [7]: 6 | fold-change of IC50 of the mutant relative to WT [8]: 2 | IC50 ([8]; E138K): 3.4 nM | IC50 [8, 15]: < 6 nM | IC50 [9]: 9.9 nM | fold-change of IC50 of the mutant relative to WT [9]: 6 | IC50 [10]: 29.8 ± 5.4 nM | fold-change of IC50 of the mutant relative to WT [10]: 19

Cc1cc(/C=C/C#N)cc(C)c1Nc1nc(Nc2ccc(C#N)cc2)ncc1[N+](=O)[O-] [compound 6]
IC50 [1]: 0.2 ± 0.09 nM | fold-change of IC50 of the mutant relative to WT [2]: 6 | IC50 [3]: 0.23 ± 0.06 nM | IC50 [4]: 0.8 ± 0.06 nM | fold-change of IC50 of the mutant relative to WT [4]: < 2 | IC50 [5]: 1.1 ± 0.2 nM | fold-change of IC50 of the mutant relative to WT [5]: 2 | fold-change of IC50 of the mutant relative to WT [6]: 2 | fold-change of IC50 of the mutant relative to WT [11]: 2 | IC50 [7, 14]: < 2.5 nM | fold-change of IC50 of the mutant relative to WT [7]: 5 | IC50 ([7]; K101E): 2.6 ± 0.96 nM | fold-change of IC50 of the mutant relative to WT [8]: 3 | IC50 ([8]; E138K): 1.4 ± 0.3 nM | IC50 [8, 15]: < 2.5 nM | fold-change of IC50 of the mutant relative to WT [12]: 2 | IC50 [9]: 2.5 nM | fold-change of IC50 of the mutant relative to WT [9]: 5 | IC50 [10]: 12.6 nM | fold-change of IC50 of the mutant relative to WT [10]: 25

Cc1cc(/C=C/C#N)cc(C)c1Nc1ccnc(Nc2ccc(C#N)cc2)n1 [RPV, rilpivirine]
fold-change of IC50 of the mutant relative to WT ([1]; G190A vs WT): < 2 | IC50 [1]: 0.4 ± 0.08 nM | fold-change of IC50 of the mutant relative to WT [2]: 7 | IC50 [3]: 0.2 nM | IC50 [4]: 0.6 ± 0.2 nM | fold-change of IC50 of the mutant relative to WT [4]: 3 | IC50 [5]: 0.5 ± 0.02 nM | fold-change of IC50 of the mutant relative to WT [5]: 2 | fold-change of IC50 of the mutant relative to WT [13]: < 2 | fold-change of IC50 of the mutant relative to WT [11]: < 2 | IC50 [7, 14]: < 2.5 nM | fold-change of IC50 of the mutant relative to WT [7]: 11 | IC50 ([7]; K101E): 2.6 ± 1.6 nM | fold-change of IC50 of the mutant relative to WT [8]: 4 | IC50 [9]: 6.2 nM | fold-change of IC50 of the mutant relative to WT [9]: 26 | IC50 [10]: 93.5 ± 12.1 nM | fold-change of IC50 of the mutant relative to WT [10]: 390
